Patent US20140243418A1, “RASAGILINE FOR PARKINSON'S DISEASE MODIFICATION” (Teva Pharmaceutical Industries, Ltd., priority 2008, published 2014)
Where “and” joins values, the source holds several entries; their conditions need not be identical. Identical values can stand only once. Like-named read-outs stand apart in the source and are kept apart here.

Tested on: Early Stage PD patients
Settings: for 1 mg Early-Delayed Start Slope Difference, Estimate / 2 mg Early-Delayed Start Slope Difference, Estimate / 1 mg-Placebo Slope Difference, Estimate / 2 mg-Placebo Slope Difference, Estimate: Total UPDRS slopes; for 1 mg Early-Delayed Start Slope Difference, Estimate / 2 mg Early-Delayed Start Slope Difference, Estimate: Active Phase weeks 48-72, non-inferiority margin 0.15; for 1 mg Early-Delayed Start Slope Difference, Estimate / 1 mg-Placebo Slope Difference, Estimate / 1 mg-Placebo Week 36-12, Estimate / 1 mg Early-Delayed Start at week 72, Estimate: rasagiline 1 mg; for 2 mg Early-Delayed Start Slope Difference, Estimate / 2 mg-Placebo Slope Difference, Estimate / 2 mg-Placebo Week 36-12, Estimate / 2 mg Early-Delayed Start at week 72, Estimate: rasagiline 2 mg; for 1 mg-Placebo Slope Difference, Estimate / 2 mg-Placebo Slope Difference, Estimate: PC phase weeks 12-36, model that assumes linearity; for 1 mg-Placebo Week 36-12, Estimate / 2 mg-Placebo Week 36-12, Estimate: Total UPDRS, PC phase, alternative categorical model that compares week 36 to week 12; for outcome of the primary analysis (three hierarchal endpoints): both doses, post-hoc; for 1 mg Early-Delayed Start at week 72, Estimate / 2 mg Early-Delayed Start at week 72, Estimate: change from baseline in Total UPDRS, end of the Active Phase
Protocol: 1 mg/day rasagiline during Phase I and Phase II; • Group 2. 2 mg/day rasagiline during Phase I and Phase II; • Group 3. placebo during Phase I followed by 1 mg/day rasagiline during Phase II; and • Group 4. placebo during Phase I followed by 2 mg/day rasagiline during Phase II.
Thus, ‘early-start’ patients receive 72 weeks of treatment with rasagiline (1 or 2 mg once daily) and ‘delayed-start’ patients receive 36 weeks of placebo followed by 36 weeks of rasagiline (1 or 2 mg once daily). […] If subjects in either treatment group required additional anti-parkinsonian medication during the placebo-controlled stage of the trial, they could proceed directly to Phase II. Once in Phase II, no additional anti-PD therapy is permitted. If the patient requires additional medication in this stage they are discontinued from the study.
1 mg/day rasagiline during Phase I and Phase II (1 mg early start) • 2. 2 mg/day rasagiline during Phase I and Phase II (2 mg early start) • 3. placebo during Phase I followed by 1 mg/day rasagiline during Phase II (1 mg delayed start) • 4. placebo during Phase I followed by 2 mg/day rasagiline during Phase II (2 mg delayed start)
If, at any stage during the placebo-controlled phase the investigator determines that a subject needs additional anti-PD therapy, the subject will proceed to Phase II of the study. The investigator, aided by a questionnaire, will give careful consideration to the issue of a subject's need for additional anti-PD therapy. Scheduled in-clinic visits will be conducted at baseline and at weeks 4, 12, 24 and 36. Therefore, altogether there will be 5 scheduled visits during this phase. Unscheduled visits may be conducted at any time to assess a subject's need for additional anti-PD therapy, for safety reasons or for any other reason.
Thus, subjects who receive 1 mg rasagiline during Phase I will continue to receive 1 mg during Phase II, subjects who receive 2 mg rasagiline during Phase I will continue to receive 2 mg during Phase II, and subjects who receive placebo during Phase I will receive either 1 mg or 2 mg rasagiline during Phase II. The study blind will be maintained. No additional anti-PD therapy will be permitted during this phase. This applies to both the subjects who enter Phase II after completing the full 36-week duration of Phase I and to subjects who are switched from Phase I to Phase II because of a need of additional anti-PD therapy. If, the investigator determines that a subject needs additional anti-PD therapy during Phase II, the subject will be prematurely withdrawn from the study. The investigator, aided by a questionnaire, will give careful consideration to the issue of a subject's need for additional anti-PD therapy. Scheduled in-clinic visits will be conducted every 6 weeks. Therefore, altogether there will be 6 visits during this phase—at weeks 42, 48, 54, 60, 66 and 72. Unscheduled visits may be conducted at any time to assess a subject's need for additional anti-PD therapy, for safety reasons or for any other reason.

[1] = rasagiline 1 mg/day delayed-start, Baseline UPDRS > 25.5 (Upper Quartile)
[2] = rasagiline 1 mg/day delayed-start, Baseline UPDRS ≦ 25.5 (Lower 3 Quartiles)
[3] = rasagiline 1 mg/day delayed-start, all subjects
[4] = rasagiline 1 mg/day delayed-start, all subjects, listed as Rasagiline
[5] = rasagiline 1 mg/day early-start minus delayed-start, Baseline UPDRS > 25.5 (Upper Quartile)
[6] = rasagiline 1 mg/day early-start minus delayed-start, Baseline UPDRS ≦ 25.5 (Lower 3 Quartiles)
[7] = rasagiline 1 mg/day early-start, Baseline UPDRS > 25.5 (Upper Quartile)
[8] = rasagiline 1 mg/day early-start, Baseline UPDRS ≦ 25.5 (Lower 3 Quartiles)
[9] = rasagiline 1 mg/day early-start, all subjects
[10] = rasagiline 1 mg/day early-start, all subjects, listed as Rasagiline

**Q.** What does the source list for `C#CCN[C@@H]1CCc2ccccc21` [rasagiline]?
**A.** Disease modifying effect (1 mg treatment, according to FDA requirements as predefined in the statistical analysis plan): demonstrated; Disease modifying effect (2 mg treatment): not evident; symptomatic effect observed in TEMPO (ADAGIO placebo controlled (PC) phase, rasagiline 1 mg and 2 mg versus placebo): replicated; change in Total UPDRS score at week 72 (Early Stage PD patients, dose not stated): 2.8; rate of progression of PD (Early Stage PD patients, improved from 0.139, dose not stated): 0.066 score (change in Total UPDRS)/week; 1 mg Early-Delayed Start Slope Difference, Estimate (ACTE): 0.000; 1 mg Early-Delayed Start Slope Difference, Estimate (CO): −0.011; 1 mg Early-Delayed Start Slope Difference, Estimate (PP): −0.011; 2 mg Early-Delayed Start Slope Difference, Estimate (ACTE): 0.029; 2 mg Early-Delayed Start Slope Difference, Estimate (CO): 0.021; 2 mg Early-Delayed Start Slope Difference, Estimate (PP): 0.022; 1 mg-Placebo Slope Difference, Estimate (CO data analysis set): −0.033; 1 mg-Placebo Slope Difference, Estimate (ITT data analysis set): −0.046; 1 mg-Placebo Slope Difference, Estimate (PP data analysis set): −0.037; 2 mg-Placebo Slope Difference, Estimate (CO data analysis set): −0.061; 2 mg-Placebo Slope Difference, Estimate (ITT data analysis set): −0.072; 2 mg-Placebo Slope Difference, Estimate (PP data analysis set): −0.065; 1 mg-Placebo Week 36-12, Estimate (CO): −0.799; 1 mg-Placebo Week 36-12, Estimate (ITT): −1.043; 1 mg-Placebo Week 36-12, Estimate (PP): −0.873; 2 mg-Placebo Week 36-12, Estimate (CO): −1.463; 2 mg-Placebo Week 36-12, Estimate (ITT): −1.668; 2 mg-Placebo Week 36-12, Estimate (PP): −1.553; difference in change in Total UPDRS score vs delayed treatment, maintained (between Week 48 and Week 72, dose not stated): 1.7 score; outcome of the primary analysis (three hierarchal endpoints) (lower three quartiles of baseline UPDRS scores (≦25.5)): neither dose met all of the primary endpoints; outcome of the primary analysis (three hierarchal endpoints) (upper quartile of baseline total UPDRS (>25.5)): met all 3 primary endpoints; 1 mg Early-Delayed Start at week 72, Estimate (ACTE data analysis set): −1.680; 1 mg Early-Delayed Start at week 72, Estimate (CO data analysis set): −1.592; 1 mg Early-Delayed Start at week 72, Estimate (PP data analysis set): −1.594; 2 mg Early-Delayed Start at week 72, Estimate (ACTE data analysis set): 0.356; 2 mg Early-Delayed Start at week 72, Estimate (CO data analysis set): −0.088; 2 mg Early-Delayed Start at week 72, Estimate (PP data analysis set): −0.024; reduction in Total UPDRS score at week 72 (corresponding to change of 2.8 at week 72): 62.2%; duration for which benefits of early treatment are sustained (early treatment vs later initiation): at least 18 months; Primary 2: estimated change in total UPDRS from baseline to week 72 [1]: 5.41; Primary 3: rate of change in UPDRS, weeks 48-72 [1]: 0.095 UPDRS units/wk; Primary 2: estimated change in total UPDRS from baseline to week 72 [2]: 4.03; Primary 3: rate if change in UPDRS, weeks 48-72 [2]: 0.08 UPDRS units/wk; Primary 2: estimated change in total UPDRS from baseline to week 72 [3]: 4.50; Primary 3: rate of change in UPDRS, weeks 48-72 [3]: 0.085 UPDRS units/wk; Primary 2: estimated change in total UPDRS from baseline to week 72 [4]: 4.52±0.56; Primary 3: rate of change in UPDRS, weeks 48-72 [4]: 0.085±0.02 UPDRS units/wk; Primary 2: estimated change in total UPDRS from baseline to week 72, early-start-delayed-start [5]: −3.40±1.66 and −3.40; Primary 3: rate of change in UPDRS, weeks 48-72, early-start-delayed-start [5]: −0.02 UPDRS units/wk; Primary 2: estimated change in total UPDRS from baseline to week 72, early-start-delayed-start [6]: −1.08; Primary 3: rate if change in UPDRS, weeks 48-72, early-start-delayed-start [6]: 0.004 UPDRS units/wk; Primary 2: estimated change in total UPDRS from baseline to week 72, early-start-delayed-start (rasagiline 1 mg/day early-start minus delayed-start, all subjects): −1.68±0.75 and −1.68; Primary 3: rate of change in UPDRS, weeks 48-72, early-start-delayed-start (rasagiline 1 mg/day early-start minus delayed-start, all subjects, non-inferiority margin 0.15): 0.00 UPDRS units/wk; Primary 2: estimated change in total UPDRS from baseline to week 72 [7]: 2.01; Primary 3: rate of change in UPDRS, weeks 48-72 [7]: 0.075 UPDRS units/wk; Primary 2: estimated change in total UPDRS from baseline to week 72 [8]: 2.94; Primary 3: rate if change in UPDRS, weeks 48-72 [8]: 0.09 UPDRS units/wk; Primary 2: estimated change in total UPDRS from baseline to week 72 [9]: 2.82; Primary 3: rate of change in UPDRS, weeks 48-72 [9]: 0.085 UPDRS units/wk; Primary 2: estimated change in total UPDRS from baseline to week 72 [10]: 2.82±0.53; Primary 3: rate of change in UPDRS, weeks 48-72 [10]: 0.085±0.02 UPDRS units/wk
